PubChem BioAssay (NCI)
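Dose response: 5 concentrations. Exposure: 48 h. Format: 96-well plates. Endpoint: linear interpolation; highest concentration if not reached. GI50 is the concentration that inhibits growth by half. TGI: concentration producing complete growth inhibition.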

Legend:
Test in all cases: NCI tumour cell line growth inhibition, 48 h
SK-MEL-5 melanoma = system: SK-MEL-5 melanoma
SK-OV-3 ovarian = system: SK-OV-3 ovarian
DU-145 prostate = system: DU-145 prostate
NCI/ADR-RES ovarian = system: NCI/ADR-RES ovarian
LOX IMVI melanoma = system: LOX IMVI melanoma
OVCAR-8 ovarian = system: OVCAR-8 ovarian
SN12C renal = system: SN12C renal
OVCAR-5 ovarian = system: OVCAR-5 ovarian
K-562 leukemia = system: K-562 leukemia
HT29 colon = system: HT29 colon
T-47D breast = system: T-47D breast
A549 NSCLC = system: A549 NSCLC
MDA-MB-435 = system: MDA-MB-435
NCI-H460 lung = system: NCI-H460 lung
HS 578T breast = system: HS 578T breast
MOLT-4 leukemia = system: MOLT-4 leukemia
KM12 colon = system: KM12 colon
UACC-62 melanoma = system: UACC-62 melanoma
MALME-3M melanoma = system: MALME-3M melanoma
SF-539 CNS = system: SF-539 CNS
NCI-H23 lung = system: NCI-H23 lung
MCF7 breast = system: MCF7 breast
HOP-92 NSCLC = system: HOP-92 NSCLC
SK-MEL-28 melanoma = system: SK-MEL-28 melanoma
HCT-116 colon = system: HCT-116 colon
SR leukemia = system: SR leukemia
U251 CNS = system: U251 CNS
EKVX NSCLC = system: EKVX NSCLC
HCT-15 colon = system: HCT-15 colon
786-0 renal = system: 786-0 renal
SNB-19 CNS = system: SNB-19 CNS
SF-268 CNS = system: SF-268 CNS
NCI-H226 lung = system: NCI-H226 lung
HCC-2998 colon = system: HCC-2998 colon
SNB-75 CNS = system: SNB-75 CNS
HL-60(TB) leukemia = system: HL-60(TB) leukemia
COLO 205 colon = system: COLO 205 colon
BT-549 breast = system: BT-549 breast
SW-620 colon = system: SW-620 colon
SF-295 CNS = system: SF-295 CNS
OVCAR-4 ovarian = system: OVCAR-4 ovarian
MDA-MB-231 breast = system: MDA-MB-231 breast
ACHN renal = system: ACHN renal
SK-MEL-2 melanoma = system: SK-MEL-2 melanoma
UACC-257 melanoma = system: UACC-257 melanoma
M14 melanoma = system: M14 melanoma
UO-31 renal = system: UO-31 renal
PC-3 prostate = system: PC-3 prostate
IGROV1 ovarian = system: IGROV1 ovarian
OVCAR-3 ovarian = system: OVCAR-3 ovarian
CAKI-1 renal = system: CAKI-1 renal
CCRF-CEM leukemia = system: CCRF-CEM leukemia
A498 renal = system: A498 renal
TK-10 renal = system: TK-10 renal
NCI-H522 lung = system: NCI-H522 lung
HOP-62 NSCLC = system: HOP-62 NSCLC
RXF 393 renal = system: RXF 393 renal
RPMI-8226 leukemia = system: RPMI-8226 leukemia

## CN(C)c1ccc(/C=C/C(=O)c2ccc(Nc3nc(Nc4ccc(F)cc4)nc(Nc4ccc(F)cc4)n3)cc2)cc1
SK-MEL-5 melanoma
  GI50: 7.65 µM
  TGI: 23.9 µM
SK-OV-3 ovarian
  GI50: 14.7 µM
  TGI: 55.7 µM
DU-145 prostate
  GI50: 25.1 µM
  TGI: 91.6 µM
NCI/ADR-RES ovarian
  GI50: 4.39 µM
  TGI: 30.7 µM
LOX IMVI melanoma
  GI50: 19 µM
  TGI: 50.7 µM
OVCAR-8 ovarian
  GI50: 11.6 µM
  TGI: 40.3 µM
SN12C renal
  GI50: 43 µM
  TGI: > 100 µM
OVCAR-5 ovarian
  GI50: 34.4 µM
  TGI: > 100 µM
K-562 leukemia
  GI50: 12.7 µM
  TGI: > 100 µM
HT29 colon
  GI50: 15.5 µM
  TGI: 66.6 µM
T-47D breast
  GI50: 6.73 µM
  TGI: 51.7 µM
A549 NSCLC
  GI50: 12.8 µM
  TGI: 34.2 µM
MDA-MB-435
  GI50: 3.49 µM
  TGI: 25.4 µM
NCI-H460 lung
  GI50: 22 µM
  TGI: > 100 µM
HS 578T breast
  GI50: 14.4 µM
  TGI: 51.9 µM
MOLT-4 leukemia
  GI50: 6.48 µM
  TGI: 63 µM
KM12 colon
  GI50: 19 µM
  TGI: 75.2 µM
UACC-62 melanoma
  GI50: 27.4 µM
  TGI: > 100 µM
MALME-3M melanoma
  GI50: 19.1 µM
  TGI: 78.9 µM
SF-539 CNS
  GI50: 19 µM
  TGI: 44.6 µM
NCI-H23 lung
  GI50: 19.6 µM
  TGI: 68.6 µM
MCF7 breast
  GI50: 17.6 µM
  TGI: > 100 µM
HOP-92 NSCLC
  GI50: 4.94 µM
  TGI: 24 µM
SK-MEL-28 melanoma
  GI50: 17 µM
  TGI: 75.5 µM
HCT-116 colon
  GI50: 11.4 µM
  TGI: 32.4 µM
SR leukemia
  GI50: 7.12 µM
  TGI: > 100 µM
U251 CNS
  GI50: 17.2 µM
  TGI: 55.1 µM
EKVX NSCLC
  GI50: 19.9 µM
  TGI: 83 µM
HCT-15 colon
  GI50: 19.4 µM
  TGI: > 100 µM
786-0 renal
  GI50: 14.9 µM
  TGI: 45.8 µM
SNB-19 CNS
  GI50: 29.6 µM
  TGI: > 100 µM
SF-268 CNS
  GI50: 24.9 µM
  TGI: > 100 µM
NCI-H226 lung
  GI50: 23.4 µM
  TGI: 78.8 µM
HCC-2998 colon
  GI50: 11 µM
  TGI: 32.5 µM
SNB-75 CNS
  GI50: 13.8 µM
  TGI: 39 µM
HL-60(TB) leukemia
  GI50: 12.2 µM
  TGI: > 100 µM
COLO 205 colon
  GI50: 5.16 µM
  TGI: 24.8 µM
BT-549 breast
  GI50: 13.5 µM
  TGI: 43.6 µM
SW-620 colon
  GI50: 18 µM
  TGI: 46 µM
SF-295 CNS
  GI50: 15 µM
  TGI: 41.3 µM
OVCAR-4 ovarian
  GI50: 15 µM
  TGI: 53.4 µM
MDA-MB-231 breast
  GI50: 13.5 µM
  TGI: 46.4 µM
ACHN renal
  GI50: 27.4 µM
  TGI: > 100 µM
SK-MEL-2 melanoma
  GI50: 14.2 µM
  TGI: 52.5 µM
UACC-257 melanoma
  GI50: 22.5 µM
  TGI: 90.9 µM
M14 melanoma
  GI50: 11.2 µM
  TGI: 34.6 µM
UO-31 renal
  GI50: 15.2 µM
  TGI: 40.4 µM
PC-3 prostate
  GI50: 6.56 µM
  TGI: 80.2 µM
IGROV1 ovarian
  GI50: 16.7 µM
  TGI: 45 µM
OVCAR-3 ovarian
  GI50: 16.8 µM
  TGI: 46 µM
CAKI-1 renal
  GI50: 21.8 µM
  TGI: 63.3 µM
CCRF-CEM leukemia
  GI50: 5.61 µM
  TGI: > 100 µM
A498 renal
  GI50: 13 µM
  TGI: 30.8 µM
TK-10 renal
  GI50: 28.7 µM
  TGI: > 100 µM
NCI-H522 lung
  GI50: 16.2 µM
  TGI: 58.4 µM
HOP-62 NSCLC
  GI50: 17.7 µM
  TGI: 47.4 µM
RXF 393 renal
  GI50: 7.84 µM
  TGI: 26.1 µM
RPMI-8226 leukemia
  GI50: 7.62 µM
  TGI: > 100 µM
